The values that follow come from patent US11957759B1, “Rapidly accelerated fibrosarcoma (RAF) degrading compounds and associated methods of use” (Arvinas Operations, Inc., priority 2022, dated 2024).

For test [1], the target named is T1, B-RAF V600E (Homo sapiens, UniProt P15056, V600E).
T1 construct: expressed in transfected cells; host or cells: T-Rex 293 cells (Invitrogen #R71007)
Briefly: Target protein degradation, assay A: T-Rex 293 cells, HA-B-RAF_V600E, 96 well format. The format is cell-based. The following applies: T-Rex 293 HA-B-RAF_V600E cells, 24 hours, Examples 1-82. The essentials:
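T-Rex 293 cells stably expressing doxycycline-inducible HA-B-RAF V600E (1 ng/mL doxycycline) treated 24 h at 37 °C with compound, final 1 μM to 0.1 nM in 0.1% DMSO. Fixed, permeabilized cells immunostained for HA and imaged by high-content microscopy; DC50 and Dmax (% of control) reported.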

Test [2] deals with T2, B-RAF G466V (Homo sapiens, UniProt P15056, G466V).
T2 construct: expressed in transfected cells; host or cells: T-Rex 293 cells (Invitrogen #R71007)
Briefly: Target protein degradation, assay B: T-Rex 293 cells, HA-B-RAF_G466V, 96 well format. The settings on record: T-Rex 293 HA-B-RAF_G466V cells, 24 hours, Examples 1-82. The format is cell-based. The protocol: B. T-Rex 293 Cells (96 Well Format)
T-Rex 293 cells were purchased from Invitrogen (#R71007), and stably transfected with a pcDNA4/TO_HA-B-RAF_G466V construct, using 400 ug Zeocin for selection. G466V cells are plated in ulbecco's Modified Eagle Medium (DMEM; Gibco #11965118) containing 10% fetal bovine serum (FBS; Gibco #16000044) and 0.75 ng/mL doxycycline (Selleckchem #4163) at a density of 5,000 cells/well in 50 μl on poly-D-lysine (PDL) coated, black clear bottom 96-well plates (Corning #354640) and incubated for 24 hours at 37° C. with 5% CO2. The following day 50 ul of tested compound was added at 2× concentration in DMEM with a final concentration ranging from 30 nM to 3 pM in 0.1% dimethylsulfoxide (DMSO), and incubated for 24 hours at 37° C. with 5% CO2. At the end of the experimental treatment, the media was flicked off and cells washed once with phosphate-buffered saline (PBS)++(PBS with CaCl and MgCl) and gently replacing with 200 μl PBS++ per well. The PBS++ was removed and 50 uL 4% paraformaldehyde (PFA; EMS #15710) in PBS++ was added, and incubate at room temperature for 15 minutes. Cells were washed once with PBS++ and 50 uL 0.1% Triton X-100 (Fisher #BP151-500) in PBS++ was added. Plate was incubate for 5 minutes at room temperature. Cells were was once with PBS++. Cells were blocked with 100 uL Licor blocking buffer (Licor #927-50000) for 1 hour at room temperature. Next, 50 uL of HA antibody (CST #3724) at 1:1000 in Licor blocking buffer was added, and the plate icubate overnight at 4° C. The plates were parafilmed to prevent evaporation. Plate was washed three times with 200 uL PBS++. Fifty microliters of HCS secondary antibody solution [1:1000 Hoechst (Invitrogen #H3570), 1:1000 phalloidin (Invitrogen #A22287) and 1:5000 Alexa fluor (Invitrogen #A11008)] was added and incubated for 1 hour. Plate was wash three times with 200 uL PBS++, and imaged on a high content reader (ImageXpress Micro XLS, Molecular Devices).
The concentration of an exemplary compound that leads to half maximal degradation (DC50) as well as the maximum degradation observed (Dmax, conventionally expressed as a percentage of control) is shown below in Table 2.

Usually DC50 stands for the concentration at which degradation of the target reaches its halfway point. A high value points to a less potent degrader. The Dmax is the largest share of the target that was removed. High values mean a fuller loss of target, low ones a partial loss of target.

T2 sequence (P15056 whole entry G466V): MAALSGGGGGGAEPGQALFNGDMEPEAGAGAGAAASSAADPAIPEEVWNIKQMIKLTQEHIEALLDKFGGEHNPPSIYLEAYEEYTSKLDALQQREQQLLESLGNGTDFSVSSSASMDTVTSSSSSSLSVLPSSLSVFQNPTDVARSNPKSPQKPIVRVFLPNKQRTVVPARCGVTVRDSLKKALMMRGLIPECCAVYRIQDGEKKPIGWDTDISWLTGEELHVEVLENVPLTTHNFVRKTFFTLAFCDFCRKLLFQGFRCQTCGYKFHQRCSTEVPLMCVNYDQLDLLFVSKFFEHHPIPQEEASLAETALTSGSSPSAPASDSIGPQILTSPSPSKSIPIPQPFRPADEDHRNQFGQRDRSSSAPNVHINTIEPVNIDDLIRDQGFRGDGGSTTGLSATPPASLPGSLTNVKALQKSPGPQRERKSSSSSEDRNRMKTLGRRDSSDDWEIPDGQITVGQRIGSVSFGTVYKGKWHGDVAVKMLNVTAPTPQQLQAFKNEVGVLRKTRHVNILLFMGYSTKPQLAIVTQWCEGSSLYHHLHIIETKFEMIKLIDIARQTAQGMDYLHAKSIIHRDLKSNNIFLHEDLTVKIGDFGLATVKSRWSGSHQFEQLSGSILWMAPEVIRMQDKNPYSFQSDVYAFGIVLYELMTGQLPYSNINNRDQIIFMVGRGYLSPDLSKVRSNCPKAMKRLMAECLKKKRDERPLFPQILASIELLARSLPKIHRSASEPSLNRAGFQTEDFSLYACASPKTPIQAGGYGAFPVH
T1 sequence (P15056 whole entry V600E): as the sequence (P15056 whole entry G466V) above, with V466G, V600E counted along it

As for `N#Cc1c(NS(=O)(=O)N2CC[C@@H](F)C2)ccc(F)c1Oc1ccc2ncn(-c3ccc(N4CCN(C(=O)CC5(O)CCN(c6ccc(NC7CCC(=O)NC7=O)cc6F)CC5)CC4)cc3)c(=O)c2c1` (stereo partly drawn) [Example 67, (3R)-N-{2-cyano-3-[(3-(4-{4-[2-(1-{4-[(2,6-dioxopiperidin-3-yl)amino]-2-fluorophenyl}-4-hydroxypiperidin-4-yl)acetyl]piperazin-1-yl}phenyl)-4-oxo-3,4-dihydroquinazolin-6-yl]oxy}-4-fluorophenyl)-3-fluoropyrrolidine-1-sulfonamide], the DC50 in test [1] was 50 to 500 nM; in test [2] it was more than 30 nM. Also, the Dmax in test [1] lay within 35 to 70%.

Turning to `N#Cc1c(NS(=O)(=O)N2CC[C@@H](F)C2)ccc(F)c1Oc1ccc2ncn(-c3cnc(N4CCN(C(=O)CC5(O)CCN(c6ccc7c(c6)CN([C@H]6CCC(=O)NC6=O)C7=O)CC5)CC4)nc3)c(=O)c2c1` [Example 68, (3R)-N-(2-cyano-3-{[3-(2-{4-[2-(1-{2-[(3S)-2,6-dioxopiperidin-3-yl]-1-oxo-2,3-dihydro-1H-isoindol-5-yl}-4-hydroxypiperidin-4-yl)acetyl]piperazin-1-yl}pyrimidin-5-yl)-4-oxo-3,4-dihydroquinazolin-6-yl]oxy}-4-fluorophenyl)-3-fluoropyrrolidine-1-sulfonamide], the results for the DC50 in test [1] and in test [2] were 50 to 500 nM and 1 to 10 nM, respectively. The maximal degradation (Dmax) in test [1] and in test [2] was 35 to 70% in each case.

In test [1], `N#Cc1c(NS(=O)(=O)N2CC[C@@H](F)C2)ccc(F)c1Oc1ccc2ncn(-c3ccc(N4CCN(C(=O)CC5(O)CCN(c6ccc(C7CCC(=O)NC7=O)cc6F)CC5)CC4)nc3)c(=O)c2c1` (stereo partly drawn) [Example 69, (3R)-N-{2-cyano-3-[(3-{6-[4-(2-{1-[4-(2,6-dioxopiperidin-3-yl)-2-fluorophenyl]-4-hydroxypiperidin-4-yl}acetyl)piperazin-1-yl]pyridin-3-yl}-4-oxo-3,4-dihydroquinazolin-6-yl)oxy]-4-fluorophenyl}-3-fluoropyrrolidine-1-sulfonamide] yielded a DC50 of 50 to 500 nM and a Dmax of 35 to 70%. In test [2], this molecule returned a DC50 of 1 to 10 nM and a Dmax of 35 to 70%.

For the molecule `N#Cc1c(NS(=O)(=O)N2CC[C@@H](F)C2)ccc(F)c1Oc1ccc2ncn(-c3ccc(N4CCN(C(=O)CC5(O)CCN(c6ccc(NC7CCC(=O)NC7=O)cc6F)CC5)CC4)nc3)c(=O)c2c1` (stereo partly drawn) [Example 70, (3R)-N-(2-cyano-3-{[3-(6-{4-[2-(1-{4-[(2,6-dioxopiperidin-3-yl)amino]-2-fluorophenyl}-4-hydroxypiperidin-4-yl)acetyl]piperazin-1-yl}pyridin-3-yl)-4-oxo-3,4-dihydroquinazolin-6-yl]oxy}-4-fluorophenyl)-3-fluoropyrrolidine-1-sulfonamide], in test [1], the 50% degradation concentration (DC50) lay in the range of 50 to 500 nM and the Dmax was 35 to 70%. In test [2], this molecule showed a DC50 of 1 to 10 nM and a Dmax not above 35%.

As for `N#Cc1c(NS(=O)(=O)N2CC[C@@H](F)C2)ccc(F)c1Oc1ccc2ncn(-c3ccc(N4CCN(c5ccc6c(c5)C(=O)N(C5CCC(=O)NC5=O)C6=O)CC4)cc3)c(=O)c2c1` (stereo partly drawn) [Example 71, (3R)-N-(2-cyano-3-{[3-(4-{4-[2-(2,6-dioxopiperidin-3-yl)-1,3-dioxo-2,3-dihydro-1H-isoindol-5-yl]piperazin-1-yl}phenyl)-4-oxo-3,4-dihydroquinazolin-6-yl]oxy}-4-fluorophenyl)-3-fluoropyrrolidine-1-sulfonamide], the DC50 in test [1] was more than 500 nM; in test [2], more than 30 nM.

With `N#Cc1c(NS(=O)(=O)N2CC[C@@H](F)C2)ccc(F)c1Oc1ccc2ncn(-c3ccc(N4CCN(c5ccc(C(=O)NC6CCC(=O)NC6=O)c(F)c5)CC4)cc3)c(=O)c2c1` (stereo partly drawn) [Example 72, 4-[4-(4-{6-[2-cyano-6-fluoro-3-({[(3R)-3-fluoropyrrolidin-1-yl]sulfonyl}amino)phenoxy]-4-oxo-3,4-dihydroquinazolin-3-yl}phenyl)piperazin-1-yl]-N-(2,6-dioxopiperidin-3-yl)-2-fluorobenzamide], the figures for the DC50 in test [1] and in test [2] were more than 500 nM and more than 30 nM, respectively.
